Reference: article PMC6272171 (2015)

Columns and labels:
[1] = test system: a-core (DNA, G4) AGGGTTAGGGTTAGGGTTAGGG; test: CD melting, 290 nm; settings: 50 mM Tris-HCl pH 7.4, 3.0 µM compound, 1.5 µM DNA
[2] = test system: dsDNA (DNA, duplex) GGGAGGTTTCGC/GCGAAACCTCCC; test: UV-Vis titration, Scatchard; settings: 100 mM KCl; 50 mM Tris-HCl pH 7.4, 25 °C; 0.60 ± 0.08 in 100 mM NaCl
[3] = test system: c-myc (DNA, G4) TGAGGGTGGGGAGGGTGGGGAA; test: UV-Vis titration, Scatchard; settings: 100 mM KCl; 50 mM Tris-HCl pH 7.4, 25 °C
[4] = test system: c-kit (DNA, G4) AGGGAGGGCGCTGGGAGGAGGAGGG; test: UV-Vis titration, Scatchard; settings: 100 mM KCl; 50 mM Tris-HCl pH 7.4, 25 °C
[5] = test system: a-core (DNA, G4) AGGGTTAGGGTTAGGGTTAGGG; test: UV-Vis titration, Scatchard; settings: 50 mM Tris-HCl pH 7.4, 25 °C
[6] = test system: TBA (DNA, G4) GGTTGGTGTGGTTGG; test: UV-Vis titration, Scatchard; settings: 100 mM KCl; 50 mM Tris-HCl pH 7.4, 25 °C
[7] = test system: dsDNA (DNA, duplex) GGGAGGTTTCGC/GCGAAACCTCCC; test: UV melting, 260 nm; settings: 100 mM KCl, 50 mM Tris-HCl pH 7.4, same value in NaCl
[8] = test system: a-coreTT (DNA, G4) AGGGTTAGGGTTAGGGTTAGGGTT; test: UV-Vis titration, Scatchard; settings: 100 mM KCl; 50 mM Tris-HCl pH 7.4, 25 °C
[9] = test system: F21T (DNA, G4) GGGTTAGGGTTAGGGTTAGGG; test: FRET melting; settings: 150 mM KCl; 100 mM Tris-HCl pH 7.4; 0.4 µM compound, 0.2 µM F21T
[10] = test system: a-coreTT (DNA, G4) AGGGTTAGGGTTAGGGTTAGGGTT; test: CD melting, 290 nm; settings: 100 mM KCl; 50 mM Tris-HCl pH 7.4; 3.0 µM compound, 1.5 µM DNA
[11] = test system: c-myc (DNA, G4) TGAGGGTGGGGAGGGTGGGGAA; test: CD melting, 262 nm; settings: 5 mM KCl; 50 mM Tris-HCl pH 7.4; 3.0 µM compound, 1.5 µM DNA
[12] = test system: TBA (DNA, G4) GGTTGGTGTGGTTGG; test: CD melting, 290 nm; settings: 100 mM KCl; 50 mM Tris-HCl pH 7.4; 3.0 µM compound, 1.5 µM DNA
[13] = test system: c-kit (DNA, G4) AGGGAGGGCGCTGGGAGGAGGAGGG; test: CD melting, 262 nm; settings: 20 mM KCl; 50 mM Tris-HCl pH 7.4; 3.0 µM compound, 1.5 µM DNA

∆Tm ([1]; 100 mM KCl) [°C]	∆Tm ([1]; 100 mM NaCl) [°C]	K [2]	K [3]	K [4]	K ([5]; 100 mM KCl)	K ([5]; 100 mM NaCl)	K [6]	∆Tm ([7]; 2:1 ligand:DNA) [°C]	K [8]	Tm increase [9] [°C]	∆Tm [10] [°C]	∆Tm [11] [°C]	∆Tm ([7]; 2:1 ligand:DNA in table (text: 1-fold)) [°C]	∆Tm [12] [°C]	∆Tm [13] [°C]	Structure (SMILES)
5	1	0.60 ± 0.04 × 10^6 M^-1	1.5 ± 0.2 × 10^6 M^-1	0.74 ± 0.05 × 10^6 M^-1	1.6 ± 0.2 × 10^6 M^-1	0.73 ± 0.09 × 10^6 M^-1	0.49 ± 0.04 × 10^6 M^-1	12	1.9 ± 0.3 × 10^6 M^-1							CN(C)CCCN1C(=O)c2ccc3c4c(ccc(c24)C1=O)C(=O)N(CCCN(C)C)C3=O
15			4.0 ± 0.3 × 10^6 M^-1	1.9 ± 0.18 × 10^6 M^-1	10 ± 0.5 × 10^6 M^-1	1.0 ± 0.04 × 10^6 M^-1	3.5 ± 0.2 × 10^6 M^-1		6.1 ± 0.4 × 10^6 M^-1	11	18	15	0.3	11	11	CN1CCCNC(=O)c2ccc(cc2)C(=O)NCCCN(C)CCCN2C(=O)c3ccc4c5c(ccc(c35)C2=O)C(=O)N(CCC1)C4=O
